Holding throughout (assay): DTP human tumour cell line panel, 48 h
In assay [1] the test system is 786-0 renal.
Assay [2] relates to ACHN renal.
Assay [3] relates to UACC-257 melanoma.
Assay [4] relates to NCI-H460 lung.
Assay [5] deals with LOX IMVI melanoma.
Assay [6] deals with HCT-15 colon.
The test system of assay [7] is U251 CNS.
For assay [8], the system named is K-562 leukemia.
The subject of assay [9] is HOP-92 NSCLC.
The test system of assay [10] is MDA-MB-231 breast.

SMILES strings stand for the structures.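 Cultured in 96-well plates, cells were exposed to test compound for 48 hours across five concentrations. The concentration for 50% growth inhibition is given as GI50. TGI: concentration producing complete growth inhibition.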

With `Cc1ccc(NC(=O)CC2SC(=Nc3ccc(Cl)cc3)NC2=O)cc1C` (centres undefined), the TGI is 32 µM in assay [1]; 29.6 µM in assay [2]; 29.4 µM in assay [3]; 18.2 µM in assay [4]; 33.7 µM in assay [5]; 29.3 µM in assay [6]. Further, the TGI in assay [7] was 32.7 µM; in assay [8] it was greater than 58.5 µM; in assay [9] it was 27.5 µM.
As for `CC[As](CC)SCC1OC(OC(C)=O)C(OC(C)=O)C(OC(C)=O)C1OC(C)=O` (centres undefined), the TGI in [1] stood at 28.1 µM; in [2] it was 31.5 µM; in [3], 28.6 µM; in assay [4], 31.3 µM; in assay [5], 33.6 µM; in assay [6] it was 26.4 µM. For the same compound, the total growth inhibition concentration (TGI) was determined as 25.3 µM in assay [7], 14 µM in assay [8] and 13.2 µM in assay [9].
For the compound `CCn1ncc(N=O)c1N`, the TGI in assay [1], in assay [2], in assay [3], in assay [4], in [5] and in assay [6] was greater than 100 µM each time. The TGI in assay [8] is greater than 100 µM.
Take `CCN(CC)CC(O)c1cc(-c2ccc(Cl)cc2)nc2c(C)c(Cl)ccc12` (centres undefined): the GI50 is 1.69 µM in assay [1]; 1.63 µM in assay [2]; 2.12 µM in [3]; 1.41 µM in assay [5]; 1.47 µM in [10]; 1.77 µM in [7]. Besides, the GI50 in assay [8] was 1.66 µM. For the same compound, the TGI in assay [1] stood at 3.18 µM; in [2], 3.03 µM; in [3], 3.81 µM; in assay [5], 2.77 µM; in assay [10], 3.03 µM; in assay [7], 3.33 µM. In assay [8], this compound returned a concentration for total growth inhibition (TGI) of 4.26 µM.
With `CN1C2(c3ccccc3)C(C(=O)c3ccccc3)=C(C(=O)c3ccccc3)C1(c1ccccc1)c1c(-c3ccccc3)sc(-c3ccccc3)c12`, the TGI in [1], in [2], in assay [3], in assay [4], in [5] and in [6] was greater than 100 µM in each case. For the same compound, the TGI in [7], in assay [8] and in assay [9] was greater than 100 µM throughout.
Turning to `O=C(Cc1nc2ccccc2o1)C(=O)Nc1ccc(Cl)cc1Cl`, the TGI in assay [1], in assay [2], in assay [3], in [4], in assay [6] and in assay [7] was greater than 100 µM each time. Also, the total growth inhibition concentration (TGI) in assay [8] and in assay [9] was greater than 100 µM in each case.
Consider `O=C(CC(=O)c1cccc([N+](=O)[O-])c1)C(=O)Nc1ccccc1`, for which the concentration for total growth inhibition (TGI) in [1], in [2], in assay [3], in assay [4], in [5] and in [6] was greater than 100 µM in each case. Moreover, the TGI in assay [7], in [8] and in [9] was greater than 100 µM each time.
For `[CH3][Hg]/[N]=C(/N)NC#N`, the GI50 in assay [1] was 10.2 µM; in [2], 13.5 µM; in assay [3] it was 5.1 µM; in assay [4], 25 µM; in assay [5] it was 3.29 µM; in assay [6], 3.02 µM. Besides, the GI50 in assay [7] is 23.6 µM; in assay [8], 1.69 µM; in [9], 1.78 µM. The concentration for total growth inhibition (TGI) in [1] worked out at 22.4 µM; in assay [2] it was 26.4 µM; in assay [3] it was 17.4 µM; in [4], 88.7 µM; in [5] it was 14.9 µM; in assay [6], 12.1 µM. In addition, the TGI in assay [7] was 56 µM; in assay [8], greater than 100 µM; in [9] it was 3.84 µM.
Regarding `CC1(C)C(CC(=O)O)CCCC1CC(=O)O` (centres undefined), the TGI in [1], in assay [2], in assay [3], in [5], in [6] and in assay [10] was greater than 100 µM throughout. The total growth inhibition concentration (TGI) in assay [7] and in [8] was greater than 100 µM throughout.
Take `Cc1cc(C)nc(NS(=O)(=O)c2ccc(NC(=O)COC(=O)c3cccc4c(=O)c5ccccc5[nH]c34)cc2)n1`: the total growth inhibition concentration (TGI) is 58.9 µM in [1]; greater than 100 µM in assay [2]; 65.1 µM in [3]; greater than 100 µM in assay [4]; 40.7 µM in assay [5]; greater than 100 µM in assay [6]. In addition, the figures for the total growth inhibition concentration (TGI) in [7], in assay [8] and in assay [9] were 38.4 µM, 98.8 µM and 60.3 µM, respectively.
Consider `Cc1cc(C)c(/C=N/NS(=O)(=O)c2ccccc2)c(C)c1`, for which the concentration for total growth inhibition (TGI) in assay [1], in assay [2], in [3], in [4], in assay [5] and in assay [6] was greater than 100 µM throughout. In addition, the total growth inhibition concentration (TGI) was greater than 100 µM in [7], greater than 100 µM in assay [8] and 95.9 µM in assay [9].
Regarding `COc1ccc([C@@H]2OC(=O)C3C2C(=O)O[C@H]3c2ccc(OC)cc2)cc1` (some centres undefined), the TGI in assay [1], in assay [2], in assay [3], in [4], in [6] and in assay [7] was greater than 100 µM each time. For the same compound, the TGI in assay [8] was greater than 100 µM.
Turning to `CC1C(O)=C(O)c2ccccc2N1O` (centres undefined), the TGI in assay [1], in assay [2], in [3], in assay [4], in assay [5] and in assay [6] was greater than 100 µM each time. Further, the TGI in assay [7], in [8] and in [9] was greater than 100 µM in each case.
For the compound `O=C(O)CCC1c2[nH]c3ccccc3c2CCN1Cc1ccccc1` (centres undefined), the total growth inhibition concentration (TGI) in assay [1], in assay [2], in assay [3], in assay [4], in assay [5] and in assay [6] was greater than 100 µM each time. For the same compound, the concentration for total growth inhibition (TGI) in [7], in assay [8] and in [9] was greater than 100 µM each time.

As a reminder, the TGI is the concentration at which net growth stops. A lower TGI goes with more potent growth arrest. For orientation: GI50 means the concentration at which growth is held to half of that of the control.

The values above are taken from PubChem BioAssay (NCI).
